Source: patent US20220220561A1, “METHODS AND CLINICAL PROTOCOLS AND KITS PERTAINING TO MAKING AND USING THERAPEUTIC COMPOSITIONS FOR CELLULAR TREATMENT” (ADVANCED REGEN MEDICAL TECHNOLOGIES, LLC, priority 2019, published 2022)

Columns and labels:
heterochronic cultures = assay: exosome production, total RNA and miRNA payload in heterochronic cultures; format: cell-based, human
[1] = tested on: serine-threonine protein phosphatases; conditions: cited from earlier work
Aged TNCs = assay: cell count and Trypan blue viability of aged TNCs cultured with CaMKP inhibitor; format: cell-based, human
Method: Aged TNCs (20×10^6 cells per sample) were cultured with CaMKP inhibitor (FT-0640107 shown below) at the following concentrations 25 uM, 10 uM, 5 uM, 1 uM & 0 (vehicle). After 48 and 72 hours, cells were harvested, counted using Turk's solution and percent viability assessed using Trypan blue exclusion.
At 72 hours following treatment with the CaMPK inhibitor, FT-0640107, or vehicle, cells were harvested, counted and viability measured using Trypan blue exclusion.

Restored cells = assay: transwell co-culture restoration in the presence or absence of manumycin; format: cell-based, human
Source text: Receiver cell samples (i.e., R1, R2, and R3) were individually paired with donor cell samples (i.e., D1, D2, and D3) and the pairs co-cultured in a transwell culture cell for four weeks. The morphology of the cells was studied at 2 weeks into the co-culture and at 4 weeks of co-culture. Gene expression arrays, protein arrays, and telomere length experiments compared freshly defrosted cells from the collection tubes (referred to as the baseline donor cell sample or baseline receiver cell sample) with cells at the 4-week study endpoint (referred to as restored cell samples).
The nature of the soluble particles passing through the permeable membrane in the transwell co-culture experiments was investigated. Specifically, transwell co-culture experiments were carried out in the presence or absence of manumycin. Manumycin, N-[(1S,5S,6R)-5-hydroxy-5-[(1E,3E,5E)-7-[(2-hydroxy-5-oxo-1-cyclopenten-1-yl)amino]-7-oxo-1,3,5-heptatrien-1-yl]-2-oxo-7-oxabicyclo[4.1.0]hept-3-en-3-yl]-2E,4E,6R-trimethyl,2,4-decadienamide, is an antibiotic that acts a potent and selective farnesytransferase inhibitor. Manumycin is also known to inhibit the release of exosomes. […] Further support for the role of exosome/microvesicles in mediating the disclosed cellular restoration process is shown in FIG. 55.

Compound: CC(NS(=O)(=O)c1ccc2[nH]c(=O)c(=O)[nH]c2c1)C(=O)O (centres unmarked) [BCI-137]
- exosome production and total RNA content (heterochronic cultures): minimal effect
- small and miRNA payload (heterochronic cultures): depleted
- aged MPB clonogenicity (aged MPB; heterochronic cultures treated with inhibitor): significant decrease

Compound: dragmacidin D
- inhibition of serine-threonine protein phosphatases [1]: potent inhibitor

Compound: Nc1c(S(=O)(=O)O)cc(S(=O)(=O)[O-])c2cccc(O)c12.[Na+] [FT-0640107]
- cell number (Aged TNCs; 1 μM, 72 hours, vs vehicle control and 25 μM, donor A04): increase in cell number
- viability at 1 µM (Aged TNCs; Homo sapiens, 1 μM, 72 hours, donor A04): 96.3%
- viability at 25 µM (Aged TNCs; Homo sapiens, 25 μM, 72 hours, donor A04): 93%
- cell viability and number (Aged TNCs; donor A03, 48 or 72 hour): no significant difference

Compound: CCCC[C@@H](C)/C=C(C)/C=C(\C)C(=O)NC1=C[C@@](O)(/C=C/C=C/C=C/C(=O)NC2=C(O)CCC2=O)[C@@H]2O[C@@H]2C1=O [manumycin, N-[(1S,5S,6R)-5-hydroxy-5-[(1E,3E,5E)-7-[(2-hydroxy-5-oxo-1-cyclopenten-1-yl)amino]-7-oxo-1,3,5-heptatrien-1-yl]-2-oxo-7-oxabicyclo[4.1.0]hept-3-en-3-yl]-2E,4E,6R-trimethyl,2,4-decadienamide]
- morphology of restored cells (Restored cells; 5 μM): less robust morphology
- telomere length (Restored cells; restored cell sample): decreased
- protein expression of restored cell samples (Restored cells; vs absence of manumycin): elevated levels of all proteins investigated
- gene expression of restored cell samples (Restored cells; vs changes seen in the absence of manumycin): did not display a change in expression levels

Compound: O=C(/C=C/c1ccc(/C=C/C(=O)Nc2ccc(C3=NCCN3)cc2)cc1)Nc1ccc(C2=NCCN2)cc1 [GW4869]
- toxicity to aged cultures (aged MPB): extremely toxic
- restorative phenotype (aged MPB; blocking global exosome production, data not shown): abrogated the restorative phenotype
